# Source: the supplement of paper PMC9663587
# Experiments:
# [1] = compound: CCN1CCN(Cc2ccc(Nc3ncc(F)c(-c4cc(F)c5nc(C)n(C(C)C)c5c4)n3)nc2)CC1; assay: GR value, 72 h; higher = faster growth (1 = untreated, <0 = killing);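 further: breast cancer and non-malignant breast epithelial lines, nine half-log doses, viable cells counted by Hoechst and LIVE/DEAD dye imaging versus time-zero plates and DMSO controls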
# THZ1 = compound: CN(C)C/C=C/C(=O)Nc1ccc(C(=O)Nc2cccc(Nc3ncc(Cl)c(-c4c[nH]c5ccccc45)n3)c2)cc1 [THZ1]; assay: as above
# [2] = compound: CCc1cnn2c(NCc3ccc[n+]([O-])c3)cc(N3CCCC[C@H]3CCO)nc12; assay: as above
# BSJ-03-123 = compound: CC(=O)c1c(C)c2cnc(Nc3ccc(N4CCN(CCOCCOCCOCCNC(=O)COc5cccc6c5C(=O)N(C5CCC(=O)NC5=O)C6=O)CC4)cn3)nc2n(C2CCCC2)c1=O [BSJ-03-123]; assay: as above
# YKL-5-124 = compound: C=CC(=O)Nc1ccc(C(=O)Nc2[nH]nc3c2CN(C(=O)N[C@H](CN(C)C)c2ccccc2)C3(C)C)cc1 [YKL-5-124]; assay: as above
# THZ531 = compound: CN(C)C/C=C/C(=O)Nc1ccc(C(=O)N2CCC[C@@H](Nc3ncc(Cl)c(-c4c[nH]c5ccccc45)n3)C2)cc1 [THZ531]; assay: as above
# Flavopiridol [3] = compound: T1, CN1CC[C@H](c2c(O)cc(O)c3c(=O)cc(-c4ccccc4Cl)oc23)[C@H](O)C1 [Flavopiridol]; assay: as above
# Neratinib/HKI272 = compound: CCOc1cc2ncc(C#N)c(Nc3ccc(OCc4ccccn4)c(Cl)c3)c2cc1NC(=O)/C=C/CN(C)C [Neratinib/HKI272]; assay: as above
# [4] = compound: CC(=O)c1c(C)c2cnc(Nc3ccc(N4CCNCC4)cn3)nc2n(C2CCCC2)c1=O; assay: as above
# LEE011/Ribociclib = compound: CN(C)C(=O)c1cc2cnc(Nc3ccc(N4CCNCC4)cn3)nc2n1C1CCCC1 [LEE011/Ribociclib]; assay: as above
# Taselisib/GDC0032 = compound: Cc1nc(-c2cn3c(n2)-c2ccc(-c4cnn(C(C)(C)C(N)=O)c4)cc2OCC3)n(C(C)C)n1 [Taselisib/GDC0032]
# ABT-737 = compound: CN(C)CC[C@H](CSc1ccccc1)Nc1ccc(S(=O)(=O)NC(=O)c2ccc(N3CCN(Cc4ccccc4-c4ccc(Cl)cc4)CC3)cc2)cc1[N+](=O)[O-] [ABT-737]
# Saracatinib/AZD0530 = compound: CN1CCN(CCOc2cc(OC3CCOCC3)c3c(Nc4c(Cl)ccc5c4OCO5)ncnc3c2)CC1 [Saracatinib/AZD0530]
# Flavopiridol [5] = compound: T1, Flavopiridol
# [6] = compound: CO[C@@H](C)Cn1c(=O)n(C)c2cnc3ccc(-c4cncc(C(C)(C)O)c4)cc3c21
# 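Wherever GR50, 72 h is given: breast cancer and non-malignant breast epithelial cell lines, Deep Dye Drop or Dye Drop imaging, nine half-log doses, GR normalized to time-zero plates and DMSO-only controls.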
cell line,measurement,setting,value
CAL120,GR value,[1]; 0.001 µM,0.93 GR
same,GR value,[1]; 0.003162 µM,0.85 GR
same,GR value,[1]; 0.01 µM,0.715 GR
same,GR value,[1]; 0.03162 µM,0.659 GR
same,GR value,[1]; 0.1 µM,0.609 GR
same,GR value,[1]; 0.3162 µM,0.594 GR
same,GR value,[1]; 1 µM,0.377 GR
same,GR value,[1]; 3.162 µM,-0.0553 GR
same,GR value,[1]; 10 µM,-0.138 GR
same,GR value,THZ1; 0.0001 µM,1.02 GR
same,GR value,THZ1; 0.0003162 µM,0.971 GR
same,GR value,THZ1; 0.001 µM,0.979 GR
same,GR value,THZ1; 0.003162 µM,0.92 GR
same,GR value,THZ1; 0.01 µM,0.938 GR
same,GR value,THZ1; 0.03162 µM,0.656 GR
same,GR value,THZ1; 0.1 µM,0.324 GR
same,GR value,THZ1; 0.3162 µM,0.154 GR
same,GR value,THZ1; 1 µM,-0.159 GR
same,GR value,[2]; 0.0001 µM,1.01 GR
same,GR value,[2]; 0.0003162 µM,0.995 GR
same,GR value,[2]; 0.001 µM,1.03 GR
same,GR value,[2]; 0.003162 µM,1.01 GR
same,GR value,[2]; 0.01 µM,0.495 GR
same,GR value,[2]; 0.03162 µM,-0.0996 GR
same,GR value,[2]; 0.1 µM,-0.125 GR
same,GR value,[2]; 0.3162 µM,-0.129 GR
same,GR value,[2]; 1 µM,-0.116 GR
same,GR value,BSJ-03-123; 0.001 µM,0.923 GR
same,GR value,BSJ-03-123; 0.003162 µM,0.923 GR
same,GR value,BSJ-03-123; 0.01 µM,0.969 GR
same,GR value,BSJ-03-123; 0.03162 µM,0.906 GR
same,GR value,BSJ-03-123; 0.1 µM,0.861 GR
same,GR value,BSJ-03-123; 0.3162 µM,0.9 GR
same,GR value,BSJ-03-123; 1 µM,0.755 GR
same,GR value,BSJ-03-123; 3.162 µM,0.759 GR
same,GR value,BSJ-03-123; 10 µM,0.234 GR
same,GR value,YKL-5-124; 0.001 µM,0.776 GR
same,GR value,YKL-5-124; 0.003162 µM,0.599 GR
same,GR value,YKL-5-124; 0.01 µM,0.467 GR
same,GR value,YKL-5-124; 0.03162 µM,0.385 GR
same,GR value,YKL-5-124; 0.1 µM,0.377 GR
same,GR value,YKL-5-124; 0.3162 µM,0.313 GR
same,GR value,YKL-5-124; 1 µM,0.328 GR
same,GR value,YKL-5-124; 3.162 µM,0.324 GR
same,GR value,YKL-5-124; 10 µM,0.187 GR
same,GR value,THZ531; 0.0001 µM,1.03 GR
same,GR value,THZ531; 0.0003162 µM,1.03 GR
same,GR value,THZ531; 0.001 µM,0.934 GR
same,GR value,THZ531; 0.003162 µM,1.04 GR
same,GR value,THZ531; 0.01 µM,1.06 GR
same,GR value,THZ531; 0.03162 µM,0.891 GR
same,GR value,THZ531; 0.1 µM,0.589 GR
same,GR value,THZ531; 0.3162 µM,0.275 GR
same,GR value,THZ531; 1 µM,-0.0063 GR
same,GR value,Flavopiridol [3]; 0.0001 µM,0.984 GR
same,GR value,Flavopiridol [3]; 0.0003162 µM,0.934 GR
same,GR value,Flavopiridol [3]; 0.001 µM,0.919 GR
same,GR value,Flavopiridol [3]; 0.003162 µM,0.917 GR
same,GR value,Flavopiridol [3]; 0.01 µM,0.901 GR
same,GR value,Flavopiridol [3]; 0.03162 µM,0.88 GR
same,GR value,Flavopiridol [3]; 0.1 µM,0.719 GR
same,GR value,Flavopiridol [3]; 0.3162 µM,0.342 GR
same,GR value,Flavopiridol [3]; 1 µM,-0.0548 GR
same,GR value,Neratinib/HKI272; 0.0003162 µM,0.996 GR
same,GR value,Neratinib/HKI272; 0.001 µM,1.03 GR
same,GR value,Neratinib/HKI272; 0.003162 µM,0.97 GR
same,GR value,Neratinib/HKI272; 0.01 µM,0.973 GR
same,GR value,Neratinib/HKI272; 0.03162 µM,0.999 GR
same,GR value,Neratinib/HKI272; 0.1 µM,0.876 GR
same,GR value,Neratinib/HKI272; 0.3162 µM,0.618 GR
same,GR value,Neratinib/HKI272; 1 µM,0.355 GR
same,GR value,Neratinib/HKI272; 3.162 µM,-0.262 GR
same,GR value,[4]; 0.0003162 µM,1.02 GR
same,GR value,[4]; 0.001 µM,1.01 GR
same,GR value,[4]; 0.003162 µM,0.992 GR
same,GR value,[4]; 0.01 µM,0.953 GR
same,GR value,[4]; 0.03162 µM,0.815 GR
same,GR value,[4]; 0.1 µM,0.756 GR
same,GR value,[4]; 0.3162 µM,0.761 GR
same,GR value,[4]; 1 µM,0.743 GR
same,GR value,[4]; 3.162 µM,0.671 GR
same,GR value,LEE011/Ribociclib; 0.001 µM,0.879 GR
same,GR value,LEE011/Ribociclib; 0.003162 µM,0.818 GR
same,GR value,LEE011/Ribociclib; 0.01 µM,0.765 GR
same,GR value,LEE011/Ribociclib; 0.03162 µM,0.809 GR
same,GR value,LEE011/Ribociclib; 0.1 µM,0.703 GR
same,GR value,LEE011/Ribociclib; 0.3162 µM,0.732 GR
same,GR value,LEE011/Ribociclib; 1 µM,0.646 GR
same,GR value,LEE011/Ribociclib; 3.162 µM,0.631 GR
same,GR value,LEE011/Ribociclib; 10 µM,0.664 GR
same,"GR50, 72 h",Taselisib/GDC0032,2.53 µM
same,"GR50, 72 h",ABT-737,2.15 µM
same,"GR50, 72 h",Saracatinib/AZD0530,> 10 µM
same,"GR50, 72 h",Flavopiridol [5],0.209 µM
same,"GR50, 72 h",[6],0.00177 µM
